ChEMBL document CHEMBL1201862, “PubChem BioAssay data set” (2004)
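Values below derive from 48-hour exposures of cells grown in 96-well plates, with endpoints linearly interpolated between the two concentrations bracketing the appropriate inhibition level. Here, GI50 denotes the concentration required for 50% inhibition of growth.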 Activity calls are given as the source filed them. No stated cut-off is given here; in the data, active = GI50 up to about 1.1 µM and inactive = higher.

Key:
Experiment in all cases: NCI tumour cell line growth inhibition, 48 h
SN12C = test system: SN12C
NCI-H522 = test system: NCI-H522
HOP-92 = test system: HOP-92
DU-145 = test system: DU-145
HL-60 = test system: HL-60
TK-10 = test system: TK-10
HT-29 = test system: HT-29
CAKI-1 = test system: CAKI-1
LOX IMVI = test system: LOX IMVI
RXF 393 = test system: RXF 393
OVCAR-3 = test system: OVCAR-3
HCT-116 = test system: HCT-116
SK-MEL-28 = test system: SK-MEL-28
OVCAR-5 = test system: OVCAR-5
SF-539 = test system: SF-539
MCF7 = test system: MCF7
UO-31 = test system: UO-31
UACC-62 = test system: UACC-62
NCI-H460 = test system: NCI-H460
SNB-75 = test system: SNB-75
A549 = test system: A549
NCI-H226 = test system: NCI-H226
SW-620 = test system: SW-620
NCI/ADR-RES = test system: NCI/ADR-RES
T47D = test system: T47D
PC-3 = test system: PC-3
UACC-257 = test system: UACC-257
SK-MEL-5 = test system: SK-MEL-5
CCRF-CEM = test system: CCRF-CEM
K562 = test system: K562
Hs-578T = test system: Hs-578T
MDA-MB-435 = test system: MDA-MB-435
RPMI-8226 = test system: RPMI-8226
COLO 205 = test system: COLO 205
ACHN = test system: ACHN
U-251 = test system: U-251
MDA-N = test system: MDA-N
SF-268 = test system: SF-268
OVCAR-8 = test system: OVCAR-8
SNB-19 = test system: SNB-19
KM12 = test system: KM12
NCI-H23 = test system: NCI-H23
HCT-15 = test system: HCT-15
M14 = test system: M14
Malme-3M = test system: Malme-3M
786-0 = test system: 786-0
OVCAR-4 = test system: OVCAR-4
EKVX = test system: EKVX
IGROV-1 = test system: IGROV-1
SF-295 = test system: SF-295
MOLT-4 = test system: MOLT-4
BT-549 = test system: BT-549
A498 = test system: A498
HCC 2998 = test system: HCC 2998
HOP-62 = test system: HOP-62

SMILES: COc1ccc(/N=N/C(=O)NC(CC(C)C)C(=O)NC(CC(C)C)C(=O)O)cc1 (stereo not given)
- GI50 (SN12C): > 100 µM (inactive)
- GI50 (NCI-H522): 51.9 µM (inactive)
- GI50 (HOP-92): > 100 µM (inactive)
- GI50 (DU-145): 27.7 µM (inactive)
- GI50 (HL-60): 17.5 µM (inactive)
- GI50 (TK-10): > 100 µM (inactive)
- GI50 (HT-29): > 100 µM (inactive)
- GI50 (CAKI-1): > 100 µM (inactive)
- GI50 (LOX IMVI): > 100 µM (inactive)
- GI50 (RXF 393): > 100 µM (inactive)
- GI50 (OVCAR-3): > 100 µM (inactive)
- GI50 (HCT-116): 86.5 µM (inactive)
- GI50 (SK-MEL-28): 17.8 µM (inactive)
- GI50 (OVCAR-5): 4.02 µM (inactive)
- GI50 (SF-539): 4.81 µM (inactive)
- GI50 (MCF7): > 100 µM (inactive)
- GI50 (UO-31): 24.8 µM (inactive)
- GI50 (UACC-62): 16.6 µM (inactive)
- GI50 (NCI-H460): 68.9 µM (inactive)
- GI50 (SNB-75): > 100 µM (inactive)
- GI50 (A549): 38.9 µM (inactive)
- GI50 (NCI-H226): > 100 µM (inactive)
- GI50 (SW-620): 67 µM (inactive)
- GI50 (NCI/ADR-RES): > 100 µM (inactive)
- GI50 (T47D): 26.9 µM (inactive)
- GI50 (PC-3): 18.7 µM (inactive)
- GI50 (UACC-257): 7.98 µM (inactive)
- GI50 (SK-MEL-5): 18.1 µM (inactive)
- GI50 (CCRF-CEM): 42.6 µM (inactive)
- GI50 (K562): 8.45 µM (inactive)
- GI50 (Hs-578T): > 100 µM (inactive)
- GI50 (MDA-MB-435): 34.5 µM (inactive)
- GI50 (RPMI-8226): > 100 µM (inactive)
- GI50 (COLO 205): 21.5 µM (inactive)
- GI50 (ACHN): 12.5 µM (inactive)
- GI50 (U-251): > 100 µM (inactive)
- GI50 (MDA-N): 35.3 µM (inactive)
- GI50 (SF-268): 16.9 µM (inactive)
- GI50 (OVCAR-8): > 100 µM (inactive)
- GI50 (SNB-19): > 100 µM (inactive)
- GI50 (KM12): 43.8 µM (inactive)
- GI50 (NCI-H23): > 100 µM (inactive)
- GI50 (HCT-15): 19.5 µM
- GI50 (M14): 29.9 µM (inactive)
- GI50 (Malme-3M): 23.7 µM (inactive)
- GI50 (786-0): > 100 µM (inactive)
- GI50 (OVCAR-4): > 100 µM (inactive)
- GI50 (EKVX): > 100 µM (inactive)
- GI50 (IGROV-1): > 100 µM (inactive)
- GI50 (SF-295): 34.8 µM (inactive)
- GI50 (MOLT-4): 41.6 µM (inactive)
- GI50 (BT-549): > 100 µM (inactive)
- GI50 (A498): > 100 µM (inactive)
- GI50 (HCC 2998): 30.9 µM (inactive)
- GI50 (HOP-62): > 100 µM (inactive)
